Entries after “also recorded” stand apart in the source; their conditions may differ. Peptide text beside a SMILES is read from it.
Columns and labels:
[1] = molecular target: T1, PDZ domain of PICK1 (Rattus norvegicus, UniProt Q9EP80); assay: Fluorescence polarization competition binding to PICK1 (Oregon Green-labeled DAT peptide tracer); details: for Ki: competition with DAT13 OrG tracer 40 nM, fixed subsaturating PICK1, 15 min incubation, means of three independent experiments, read-out: Ki (μM) [SE interval]; for potency in displacing the fluorescently tagged tracer (in words): unlabeled peptide titrated against fixed PICK1 and labeled DAT peptide
T1 construct: The entire coding region of rat PICK1 (residues 2-416); GST (N, cleaved yes); made in house; host or cells: E. coli BL21(DE3) pLysS
T1 sequence (Q9EP80 2-416): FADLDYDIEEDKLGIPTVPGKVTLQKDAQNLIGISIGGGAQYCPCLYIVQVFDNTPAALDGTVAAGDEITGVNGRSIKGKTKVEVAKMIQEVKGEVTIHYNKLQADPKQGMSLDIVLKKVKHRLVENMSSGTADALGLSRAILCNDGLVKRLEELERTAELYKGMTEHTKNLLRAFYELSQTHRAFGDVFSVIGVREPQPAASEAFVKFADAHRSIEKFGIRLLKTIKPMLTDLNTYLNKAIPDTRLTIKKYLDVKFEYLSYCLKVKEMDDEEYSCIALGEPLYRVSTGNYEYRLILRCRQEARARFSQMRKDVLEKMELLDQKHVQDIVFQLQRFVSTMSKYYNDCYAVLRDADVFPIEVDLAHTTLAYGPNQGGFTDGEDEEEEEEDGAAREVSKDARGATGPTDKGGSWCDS
Excerpt: (§1) The entire coding region of rat PICK1 (residues 2-416) is amplified from a pCINEO vector by PCR using pfu polymerase according to the instructions by the manufacturer (Stratagene, La Jolla, Calif.). The primers used introduce a 5′ restriction site for MunI and 3′ restriction site for AvrII. The PCR fragment is cleaved with MunI and AvrII and cloned into the reading frame of the pET41a vector (Novagen, Madison, Wis.) producing an N-terminally glutathione-S-transferase (GST) fusion of PICK1. The GST-PICK1 fusion was expressed in E. coli BL21(DE3) pLysS (Novagen). The transformed bacteria are grown to OD600 0.6 and expression of the fusion protein is induced with isopropyl-β-D1-thiogalactopyranoside (105 μM) overnight at 30° C. The bacteria are lysed by freezing and thawing in TBS buffer containing [50 mM Tris pH 7.4, 125 mM NaCl, 1% TX-100, 20 μg/mL DNAse I, 1 mM DTT (Sigma)]. The lysate is cleared by centrifugation (rotor SS-34, 18000 rpm, 48000×g, 30 min). The supernatant is incubated with glutathione-sepharose beads (Amersham Biosciences) under slow rotation for 90 minutes at 4° C. The beads are pelleted at 3500 g for 5 minutes and washed in TBS buffer containing [50 mM Tris pH 7.4, 125 mM NaCl, 0.1% TX-100, 1 mM DTT] by three batch washes. The protein is separated from the GST domain by cleavage with thrombin protease (Novagen) in the above wash buffer at 4° C. overnight. Samples of 10 μl are taken from the protein solution for determination of protein concentration and for analysis by SDS-PAGE. Protein determinations are performed using the BCA Protein Assay Reagent kit (Pierce Biotechnology, Inc, Rockford, Ill.) according to manufactures protocol using bovine serum albumin as standard. Gels are stained with GelCode Blue Stain Reagent (Pierce Biotechnology) in order to inspect size, integrity and purity of the protein (Madsen et al., JBC, 280, 20539-48, 2005).
This assay is used to screen for compounds binding to the PDZ binding groove in PICK1. The assay is based on the predicted decrease in rotational diffusion of a fluorescently labeled peptide upon its binding to a larger protein. The decrease in rotational diffusion upon binding of a fluorescent labeled peptide to PICK1 can be detected as an increase in fluorescence polarization (FP). Binding of a small-molecule compound to the PDZ binding groove can be detected by its ability to displace the fluorescently labeled peptide resulting in a decreased in FP (Madsen et al., JBC, 280, 20539-48, 2005).
To perform the assay, compounds are loaded (10 μl of each) in microtiter-plates (88 compounds per 96 well plate) (Corning) at a concentration of 1 mM in DMSO. To each well is added 90 μl buffer containing Tris base (50 mM), NaCl (125 mM), TX-100 (0.1%), PICK1 (0.45 μM) and fluorescently labeled peptide. This peptide corresponds to the C-terminus of a protein that binds to the PICK1 PDZ domain. For example, the peptide can correspond to the last 13 C-terminal residues of the DAT, of protein kinase Cα or of the GluR2 subunit of the AMPA reaceptor. The peptide can be labeled with any fluorophore. For example it can be labeled with a sulfhydryl-reactive derivative of Oregon Green via a cysteine introduced in the peptide. The peptide is used in a concentration of about 40 nM. The final concentration of the compounds in the initial screen is 100 μM. After approximately 15 min of incubation at […] the plates are analyzed in a Chameleon plate-reader (HIDEX) in the FP mode using a 488 nm excitation filter and a 535 nm long pass emission filter. Each measurement is an average of 100 flashes and is carried out four times. FP is calculated according to the equation FP=(IV−g*IH)/(IV+g*IH). As negative and positive controls, respectively, pure DMSO and DMSO with unlabeled DAT peptide (20 μM final conc.) are measured in parallel. All compounds are tested twice on separate plates.

[2] = molecular target: T2, interaction between PICK1 and a DAT-peptide fused to GST (Rattus norvegicus, UniProt Q9EP80); assay: GST-DAT pull-down assay of PICK1; type: binding; details: PICK1 band on SDS-PAGE compared with control pull-down
T2 construct: The entire coding region of rat PICK1 (residues 2-416); GST (N, cleaved yes); made in house; host or cells: E. coli BL21(DE3) pLysS
T2 sequence (Q9EP80 2-416): as above
Description: To verify binding of active compounds identified in the FP screen, a biochemical pulldown assay can be employed.
A fusion between GST and the 24 C-terminal amino acids of the dopamine transporter (GST DAT C24) is expressed in BL21(DE3)pLysS (Novagen) using the pET41a vector (Novagen, Madison, Wis.) and purified as described for PICK1 but without digestion with thrombin.
5 μl dry volume of glutathione-coated sepharose beads (Pharmacia) with bound GST alone or GST DAT C24 are suspended in 200 μl TBS buffer containing as follows [50 mM Tris pH 7.4, 125 mM NaCl, 0.1% TX-100, 1 mM DTT (Sigma) and PICK1 0.5 μM]. The compounds to be tested are added in DMSO to a final concentration of 200 μM (2% DMSO final concentrtaion). The last 11 amino acids of the C-terminus of the GLT1b glutamate transporter (60 μM final) and pure DMSO (2%) can be used as a positive and negative control, respectively.
The samples are incubated at 4° C. under slow rotation for 30 min. The beads are centrifuged at 4000 g for 5 min and subsequently washed in TBS buffer and recentrifuged. The beads containing bound protein are eluted in loading buffer and analyzed by 12% SDS-PAGE and proteins are stained with Gelcode blue stain reagent (Pierce). Active compounds i.e. a blocked pull-down are recognized by a reduced PICK1 band on the SDS-PAGE gel compared to the control pull-down. […]

[3] = molecular target: T3, PICK1 GluR2 interaction (Rattus norvegicus, UniProt Q9EP80); assay: FRET between eCFP-GluR2 C29 and eYFP-PICK1 in COS7 cells; type: cell-based; details: compound added 20 min prior to image acquisition
T3 construct: expressed in transfected cells; host or cells: COS7 cells, transient transfection
T3 sequence (Q9EP80 whole entry): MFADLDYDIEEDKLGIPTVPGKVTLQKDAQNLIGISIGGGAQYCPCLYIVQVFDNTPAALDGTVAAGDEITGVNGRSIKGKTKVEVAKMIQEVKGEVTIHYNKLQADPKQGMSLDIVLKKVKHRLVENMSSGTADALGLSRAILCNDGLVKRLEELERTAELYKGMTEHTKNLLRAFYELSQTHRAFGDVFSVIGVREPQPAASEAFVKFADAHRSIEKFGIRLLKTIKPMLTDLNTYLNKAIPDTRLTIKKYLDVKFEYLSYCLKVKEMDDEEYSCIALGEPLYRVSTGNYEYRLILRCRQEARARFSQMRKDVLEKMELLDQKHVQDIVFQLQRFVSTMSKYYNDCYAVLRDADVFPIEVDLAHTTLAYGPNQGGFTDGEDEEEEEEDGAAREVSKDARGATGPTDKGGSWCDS
Description: To determine whether a compound is able to block binding of a PD ligand, such as the c-terminus of the AMPA receptor GluR2 subunit, to the PICK1 PDZ domain in a cellular system a Fluorescent Resonance Energy Transfer (FRET) assay can be employed. PICK1 is fused to eYFP (eYFP-PICK1) and the C-terminal 29 residues of the AMPA receptor subunit GluR2 is fused to eCFP (eCFP-GluR2 C29). As a control for specificity of the FRET signal an alanine is added to the C-terminal 29 residues of GluR2 (eCFP-GluR2 C29+A) to disrupt the PDZ interaction. […]
Fluorescence resonance energy transfer (FRET; see Schmid and Sitte, 2003) is measured with an epi-fluorescence microscope (Carl Zeiss TM210, Germany) using the “three-filter method” according to Xia and Liu (2001). […]
Media are replaced by Krebs-HBS buffer (10 mM HEPES/120 mM NaCl/3 mM KCl/2 mM CaCl2/2 mM MgCl2), and images are taken using a 63× oil objective and a LUDL filter wheel that allows for rapid exchange of filters (less than 100 ms). The system is equipped with the following fluorescence filters: CFP filter (ICFP; exc.: 436 nm, dichr.: 455 nm, em.: 480 nm), YFP filter (IYFP; exc.: 500 nm, dichr.: 515 nm, em.: 535 nm) and FRET filter (IFRET: excitation=436 nm, dichroic mirror=455 nm, emission=535 nm). […] Background fluorescence is subtracted from all images and fluorescence intensity was measured in cytosolic regions in all images. […]

[4] = molecular target: T4, PICK1 (Rattus norvegicus, UniProt Q9EP80); assay: Fluorescence polarization saturation binding of fluorescently labeled peptides to PICK1
T4 construct: The entire coding region of rat PICK1 (residues 2-416); GST (N, cleaved yes); made in house; host or cells: E. coli BL21(DE3) pLysS
T4 sequence (Q9EP80 2-416): as the sequence (Q9EP80 2-416) above
Excerpt: as §1, with “Samples of 10 μl are taken from the protein solution for determination of protein concentration and for analysis by SDS-PAGE. Protein determinations are performed using the BCA Protein Assay Reagent kit (Pierce Biotechnology, Inc, Rockford, Ill.) according to manufactures protocol using bovine serum albumin as standard. Gels are stained with GelCode Blue Stain Reagent (Pierce Biotechnology) in order to inspect size, integrity and purity of the protein (Madsen et al., JBC, 280, 20539-48, 2005).” left out

Molecule: CC(C)(C)c1ccc(O)c(/N=C/c2cc(N=Nc3ccc(Cl)cc3)ccc2O)c1 [q, 4-tert-Butyl-2-{[1-[5-(4-chloro-phenylazo)-2-hydroxy-phenyl]-meth-(E)-ylidene]-amino}-phenol]
- Ki [1]: 19.1 µM

Molecule: CC(C)C[C@H](NC(=O)[C@H](Cc1c[nH]c2ccccc12)NC(=O)[C@H](Cc1c[nH]cn1)NC(=O)[C@H](CCCNC(=N)N)NC(=O)[C@H](CC(C)C)NC(=O)[C@@H](NC(=O)[C@H](Cc1ccccc1)NC(=O)[C@H](CCC(N)=O)NC(=O)[C@H](CCCNC(=N)N)NC(=O)[C@@H](NC(=O)[C@@H](N)CCC(=O)O)C(C)C)[C@@H](C)O)C(=O)N[C@@H](CCCCN)C(=O)N[C@H](C(=O)O)C(C)C [DAT peptide, reference compound] (H-EVRQFTLRHWLKV-OH; N-terminus and C-terminus assumed)
- potency in displacing the fluorescently tagged tracer (in words) [1]: more than one order of magnitude more potent

Molecule: CCOc1cc(Cl)c(Cl)c(C=O)c1O [d, 2,3-Dichloro-5-ethoxy-6-hydroxy-benzaldehyde]
- Ki [1]: 67 µM

Molecule: CCOC(=O)NC(=O)/C(C#N)=C\c1ccc(Cl)c(Cl)c1 [j, [(Z)-2-Cyano-3-(3,4-dichlorophenyl)-acryloyl]-carbamic acid ethyl ester]
- Ki [1]: 40 µM
- pull-down of PICK1 by GST-DAT (in words) [2]: inhibition; also recorded: inhibited
- FRET between eYFP-PICK1 and eCFP-GluR2 C29 (in words) ([3]; compared to vehicle (1% DMSO)): specifically reduced; also recorded: significantly reduced
- FRET between eYFP-PICK1 and eCFP-GluR2 C29+A (in words) ([3]; specificity control construct): no effect

Molecule: CCOC(=O)c1ccc(-c2ccc(/C=C3/C(=O)NN(c4ccc(C)c(Cl)c4)C3=O)o2)cc1 [t, 4-{5-[1-(3-Chloro-4-methyl-phenyl)-3,5-dioxo-pyrazolidin-(4Z)-ylidenemethyl]-furan-2-yl}-benzoic acid ethyl ester]
- Ki [1]: 13.7 µM

Molecule: PKCα peptide: peptide corresponding to the 13 C-terminal residues of PKCα, type I PDZ binding sequence -QSAV (NPQFVHPILQSAV; UniProt P17252 660-672, looked up, fragment)
- fold lower apparent affinity than the DAT peptide [4]: ~10 fold

Molecule: O=C1C(=O)c2cc([N+](=O)[O-])ccc2-c2ccccc21 [w, 2-Nitro-phenanthrene-9,10-dione]
- Ki [1]: 4.4 µM

Molecule: β2 AR peptide: peptide corresponding to the 13 C-terminal residues of the β2 AR, type I PDZ binding sequence -DSLL; specificity control (SQGRNCSTNDSLL; UniProt P07550 401-413, looked up, fragment) [reference compound]
- potency in displacing the fluorescently tagged tracer (in words) [1]: much less potent
- apparent affinity (in words) ([4]; fluorescently labeled peptide): very low apparent affinity

Molecule: O=C1C(=Cc2cc(Br)ccc2OCc2ccccc2)C(=O)c2ccccc21 [v, 2-(2-Benzyloxy-5-bromo-benzylidene)-indan-1,3-dione]
- Ki [1]: 7.7 µM

Reference: US20100249165A1, “PDZ DOMAIN MODULATORS” (University of Copenhagen, priority 2007, published 2010)
